From PubChem BioAssay AID248 (DTP/NCI, 2004)
“And” between values parts separate entries of the source, which are not always exact repeats. Equal values may be shown once. Inconclusive results and toxic doses are left out.

System: L1210 leukemia ip in BDF1 mice, survival T/C
Experiment: NCI In Vivo Anticancer Drug Screen. Data for tumor model L1210 Leukemia (intraperitoneal) in B6D2F1 (BDF1) mice
Details: endpoint: mean survival time, higher = longer survival
How it was run: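 Transplantable tumor model; survival measured in treated vs vehicle control mice. Value = treated/control.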

[1] = dose: 100.0 mg/kg/injection, schedule: Q01DX009 (ip), vehicle: other
[2] = dose: 200.0 mg/kg/injection, schedule: Q01DX009 (ip), vehicle: other
[3] = dose: 100.0 mg/kg/injection, schedule: Q01DX009 (ip), vehicle: Klucel (hydroxypropylcellulose) (HPC)
[4] = dose: 200.0 mg/kg/injection, schedule: Q01DX009 (ip), vehicle: Klucel (hydroxypropylcellulose) (HPC)
[5] = dose: 400.0 mg/kg/injection, schedule: Q01DX009 (ip), vehicle: Klucel (hydroxypropylcellulose) (HPC)
[6] = dose: 100.0 mg/kg/injection, schedule: Q01DX001 (ip), vehicle: saline
[7] = dose: 200.0 mg/kg/injection, schedule: Q01DX001 (ip), vehicle: saline
[8] = dose: 400.0 mg/kg/injection, schedule: Q01DX001 (ip), vehicle: saline

**Q.** For `O=S1(=O)C2CCCCC2(N2CCOCC2)C1c1ccccc1` (centres undefined), which T/C (dose: 66.0 mg/kg/injection, schedule: Q04DX003 (ip), vehicle: other) is on record?
**A.** 118 % of control

**Q.** What about the T/C [1] of the same compound?
**A.** 97 % of control

**Q.** And the T/C (dose: 100.0 mg/kg/injection, schedule: Q04DX003 (ip), vehicle: other)?
**A.** 101 % of control and 202 % of control

**Q.** What about the T/C (dose: 150.0 mg/kg/injection, schedule: Q04DX003 (ip), vehicle: other) of the same compound?
**A.** 93 % of control

**Q.** And the T/C [2]?
**A.** 97 % of control

**Q.** What about the T/C (dose: 200.0 mg/kg/injection, schedule: Q04DX003 (ip), vehicle: other) of the same compound?
**A.** 97 % of control

**Q.** And the T/C (dose: 400.0 mg/kg/injection, schedule: Q01DX009 (ip), vehicle: other)?
**A.** 100 % of control

**Q.** What about the T/C (dose: 400.0 mg/kg/injection, schedule: Q04DX003 (ip), vehicle: other) of the same compound?
**A.** 94 % of control

**Q.** Which T/C (dose: 100.0 mg/kg/injection, schedule: Q01DX Z (ip), vehicle: methylcellulose (MC)) does the source give for `Cc1cn(CC(C)C)c(=O)n(-c2ccccc2)c1=O` here?
**A.** 95 % of control

**Q.** Which T/C (dose: 100.0 mg/kg/injection, schedule: Q04DX003 (ip), vehicle: saline with Tween-80) does the source give for `Cc1ccc(S(=O)(=O)c2ccc(F)cc2)cc1` here?
**A.** 104 % of control

**Q.** What about the T/C (dose: 200.0 mg/kg/injection, schedule: Q04DX003 (ip), vehicle: saline with Tween-80) of the same compound?
**A.** 95 % of control

**Q.** And the T/C (dose: 400.0 mg/kg/injection, schedule: Q04DX003 (ip), vehicle: saline with Tween-80)?
**A.** 97 % of control

**Q.** Which results are given for `O=c1ccc2nc3cc(Cl)ccc3sc-2c1`?
**A.** T/C [3]: 95 % of control; T/C [4]: 96 % of control; T/C [5]: 87 % of control

**Q.** Which results are given for `CN=C1C=C(NC)C(F)(F)C1(F)F`?
**A.** T/C (dose: 6.25 mg/kg/injection, schedule: Q01DX009 (ip), vehicle: saline sonified): 96 % of control; T/C (dose: 12.5 mg/kg/injection, schedule: Q01DX009 (ip), vehicle: saline sonified): 100 % of control; T/C (dose: 12.5 mg/kg/injection, schedule: Q04DX003 (ip), vehicle: Klucel (hydroxypropylcellulose) (HPC)): 98 % of control; T/C (dose: 25.0 mg/kg/injection, schedule: Q01DX009 (ip), vehicle: saline sonified): 91 % of control; T/C (dose: 25.0 mg/kg/injection, schedule: Q04DX003 (ip), vehicle: Klucel (hydroxypropylcellulose) (HPC)): 98 % of control; T/C (dose: 50.0 mg/kg/injection, schedule: Q04DX003 (ip), vehicle: Klucel (hydroxypropylcellulose) (HPC)): 97 % of control

**Q.** Which results are given for `O=C(O)C12CCC(CC1)CC2`?
**A.** T/C (dose: 75.0 mg/kg/injection, schedule: Q01DX009 (ip), vehicle: saline): 100 % of control; T/C [6]: 93 % of control; T/C (dose: 150.0 mg/kg/injection, schedule: Q01DX009 (ip), vehicle: saline): 103 % of control; T/C [7]: 88 % of control; T/C (dose: 300.0 mg/kg/injection, schedule: Q01DX009 (ip), vehicle: saline): 100 % of control; T/C [8]: 90 % of control

**Q.** What does the source list for `CCOC(C)(NCc1ccccc1)OCC`?
**A.** T/C (dose: 25.0 mg/kg/injection, schedule: Q04DX002 (ip), vehicle: Klucel (hydroxypropylcellulose) (HPC)): 86 % of control; T/C (dose: 50.0 mg/kg/injection, schedule: Q04DX002 (ip), vehicle: Klucel (hydroxypropylcellulose) (HPC)): 111 % of control

**Q.** Which T/C [3] does the source give for `Clc1ccc(N=Nc2ccccc2)cc1` here?
**A.** 98 % of control

**Q.** And the T/C (dose: 100.0 mg/kg/injection, schedule: Q04DX003 (ip), vehicle: Klucel (hydroxypropylcellulose) (HPC))?
**A.** 95 % of control

**Q.** What about the T/C [4] of the same compound?
**A.** 91 % of control

**Q.** And the T/C (dose: 200.0 mg/kg/injection, schedule: Q04DX003 (ip), vehicle: Klucel (hydroxypropylcellulose) (HPC))?
**A.** 101 % of control

**Q.** What about the T/C [5] of the same compound?
**A.** 96 % of control

**Q.** And the T/C (dose: 400.0 mg/kg/injection, schedule: Q04DX003 (ip), vehicle: Klucel (hydroxypropylcellulose) (HPC))?
**A.** 105 % of control

**Q.** For `CCOC(=O)NC(NC(=O)OCC)c1ccco1`, which T/C (dose: 100.0 mg/kg/injection, schedule: Q01DX001 (ip), vehicle: other) is on record?
**A.** 98 % of control

**Q.** And the T/C (dose: 200.0 mg/kg/injection, schedule: Q01DX001 (ip), vehicle: other)?
**A.** 98 % of control

**Q.** What about the T/C (dose: 400.0 mg/kg/injection, schedule: Q01DX001 (ip), vehicle: other) of the same compound?
**A.** 89 % of control

**Q.** Which results are given for `CC1(C)N=C(N)N=C(N)N1c1cccc(OCCOc2ccc(NC(=O)CBr)cc2)c1`?
**A.** T/C (dose: 50.0 mg/kg/injection, schedule: Q01DX009 (ip), vehicle: saline): 124 % of control; T/C [6]: 94 % of control; T/C [1]: 172 % of control; T/C (dose: 150.0 mg/kg/injection, schedule: Q01DX009 (ip), vehicle: other): 154 % of control; T/C [7]: 109 % of control; T/C [2]: 100 % of control; T/C (dose: 200.0 mg/kg/injection, schedule: Q01DX009 (ip), vehicle: saline): 97 % of control; T/C [8]: 112 % of control

**Q.** `CCOC(=O)CN(C(=O)OCC)C(OCC)OCC` was tested. Which T/C (dose: 100.0 mg/kg/injection, schedule: Q01DX009 (ip), vehicle: saline with Tween-80) did it give?
**A.** 95 % of control

**Q.** What about the T/C (dose: 200.0 mg/kg/injection, schedule: Q01DX009 (ip), vehicle: saline with Tween-80) of the same compound?
**A.** 104 % of control

**Q.** And the T/C (dose: 400.0 mg/kg/injection, schedule: Q01DX009 (ip), vehicle: saline with Tween-80)?
**A.** 93 % of control
